Reference: ChEMBL document CHEMBL1129615, “Synthesis and quantitative structure-activity relationship of 17 beta-(hydrazonomethyl)-5 beta-androstane-3 beta,14 beta-diol derivatives that bind to Na+,K(+)-ATPase receptor” (J Med Chem, 1996)

Experiments:
[1] = biological target: Sodium/potassium-transporting ATPase; test: Displacement of [3H]ouabain from dog kidney Na+/K+ ATPase; assay type: protein-complex assay, Canis lupus familiaris
[2] = Acid dissociation constant was determined; assay type: ADME

| Compound | -Log IC50 [1] | pKa [2] |
| --- | --- | --- |
| C[C@]12CC[C@H](O)C[C@H]1CC[C@@H]1[C@@H]2CC[C@]2(C)[C@@H](/C=N/N=C(N)N)CC[C@]12O.Cl | 7 | 9.35 |
| CN1CCN=C1N/N=C/[C@H]1CC[C@]2(O)[C@@H]3CC[C@@H]4C[C@@H](O)CC[C@]4(C)[C@H]3CC[C@]12C | 6 | 8.05 |
| C/C(=N\N=C(N)N)[C@H]1CC[C@]2(O)[C@@H]3CC[C@@H]4C[C@@H](O)CC[C@]4(C)[C@H]3CC[C@]12C | 6.7 | 9.49 |
| C[C@]12CC[C@H](O)C[C@H]1CC[C@@H]1[C@@H]2CC[C@]2(C)[C@@H](/C=N/NC3=NC(=O)CN3)CC[C@]12O | 4.7 | 3.58 |
| C[C@]12CC[C@H](O)C[C@H]1CC[C@@H]1[C@@H]2CC[C@]2(C)[C@@H](/C=N/NC(N)=O)CC[C@]12O | 5.1 | 1.78 |
| C[C@]12CC[C@H](O)C[C@H]1CC[C@@H]1[C@@H]2CC[C@]2(C)[C@@H](/C=N/N=C(\N)S)CC[C@]12O | 4.7 | 0.86 |
| C[C@]12CC[C@H](O)C[C@H]1CC[C@@H]1[C@@H]2CC[C@]2(C)[C@@H](/C=N/NC3=NCCN3)CC[C@]12O | 6.7 | 8.42 |
| C[C@]12CC[C@H](O)C[C@H]1CC[C@@H]1[C@@H]2CC[C@]2(C)[C@@H](/C=N/NC3=NCCCN3)CC[C@]12O | 6.6 | 10.4 |
| C[C@]12CC[C@H](O)C[C@H]1CC[C@@H]1[C@@H]2CC[C@]2(C)[C@@H](/C=N/Nc3ccccn3)CC[C@]12O | 5.7 | 6.34 |
| C[C@]12CC[C@H](O)C[C@H]1CC[C@@H]1[C@@H]2CC[C@]2(C)[C@@H](/C=N/Nc3ncccn3)CC[C@]12O | 4.6 | 3.44 |
| CSC(=N)N/N=C/[C@H]1CC[C@]2(O)[C@@H]3CC[C@@H]4C[C@@H](O)CC[C@]4(C)[C@H]3CC[C@]12C | 5.7 | 5.76 |
| C[C@]12CC[C@H](O)C[C@H]1CC[C@@H]1[C@@H]2CC[C@]2(C)[C@@H](/C=N/N=C(\N)Nc3ccccc3)CC[C@]12O | 5.2 | 8.62 |
| C/N=C(\C[N+](=O)[O-])N/N=C/[C@H]1CC[C@]2(O)[C@@H]3CC[C@@H]4C[C@@H](O)CC[C@]4(C)[C@H]3CC[C@]12C | 4.5 | 2.37 |
